Measured values as given in US20030064434A1, “Novel G Protein-coupled receptor, GAVE1” (Aventis Pharmaceuticals, Inc., priority 2001, published 2003).

Assays:
[1] = test system: GAVE1 (Homo sapiens); assay: FLIPR assay, change in fluorescence of GAVE1 expressing CHO cells; type: cell-based; conditions: CHO cells expressing GAVE1, increasing amounts of ligand; untransformed CHO cells show control level
Excerpt: To screen for agonists of human GAVE1, hGAVE1 is artificially coupled to a Gq signaling package. Activation of the Gq mechanism stimulates the release of Ca^2+ from sarcoplasmic reticulum vesicles within the cell. The Ca^2+ is released into the cytoplasm where it can be detected using Ca^2+ chelating dyes. A Fluorometric Imaging Plate Reader or FLIPR® apparatus (Molecular Devices) is used to monitor any resulting changes in fluorescence. The activity of an agonist is reflected by an increase in fluorescence.
CHO-K1 cells expressing hGAVE1 are pre-engineered to express an indiscriminate form of Gq protein (Gα16). […]
A compound library containing possible agonists will be tested at 10 μM concentration in physiological salt buffer. Changes in fluorescence are measured for 10 seconds prior to compound addition. After the addition of the compound, fluorescence is measured every second for the first minute followed by exposures taken every six seconds for a total experimental analysis time of three minutes. […] The maximum fluorescence changes for the first 80 scans is recorded as a measure of agonist activity and compared to the maximum fluorescence change induced by 10 μM ATP (Sigma A9062).

[2] = test system: GAVE1 expression in rat cardiac myocytes; assay: Northern blot of GAVE1 RNA levels in cardiomyocytes exposed to phenylephrine; type: cell-based; conditions: rat cardiac myocytes stimulated 48 hours with 10^-5 M phenylephrine; compared to control (untreated) or vehicle-treated myocytes
Protocol: FIG. 7 is a computer representation of a Northern blot depicting GAVE1 RNA levels of cardiomyocytes expressing GAVE1 exposed to medium, vehicle and vehicle containing phenylephrine.
Northern blot analysis is performed on RNA derived from several human tissue samples to determine whether the tissues express the hGAVE1 receptor gene. The probe used is P^32-labeled hGAVE1 cDNA.
P32-labeled hGAVE1 cDNA is prepared as follows. Twenty-five ng hGAVE1 cDNA prepared as described above is resuspended to 45 μl of 10 mM Tris-HCl, pH 7.5; 1 mM EDTA in a microfuge tube and heated at 95° C. for 5 minutes. The tube then is chilled on ice for another 5 minutes. Following chilling, the mixture contained in the tube is resuspended with the 45 μl GAVE1 cDNA and buffer as described above and mixed with RTS Rad Prime Mix (supplied with the RTS Rad Prime DNA-labeling System) (Life Technologies, Catalog No. 10387-017). Five μl of P^32-labeled α-dCTP, specific activity: 3000 Ci/mM, (Amersham, AA0005) is added while mixing gently but thoroughly. The resulting mixture is incubated at 37° C. for 10 minutes. Incubation is stopped by the addition of 5 μl of 0.2 M EDTA, pH 8.0. Incorporation of the radioactive alpha-dCTP into the hGAVE1 cDNA is evaluated by taking a 5 μl aliquot of the mixture and counting the radioactivity. […]

Sequence of GAVE1 (Homo sapiens) (P21453 whole entry): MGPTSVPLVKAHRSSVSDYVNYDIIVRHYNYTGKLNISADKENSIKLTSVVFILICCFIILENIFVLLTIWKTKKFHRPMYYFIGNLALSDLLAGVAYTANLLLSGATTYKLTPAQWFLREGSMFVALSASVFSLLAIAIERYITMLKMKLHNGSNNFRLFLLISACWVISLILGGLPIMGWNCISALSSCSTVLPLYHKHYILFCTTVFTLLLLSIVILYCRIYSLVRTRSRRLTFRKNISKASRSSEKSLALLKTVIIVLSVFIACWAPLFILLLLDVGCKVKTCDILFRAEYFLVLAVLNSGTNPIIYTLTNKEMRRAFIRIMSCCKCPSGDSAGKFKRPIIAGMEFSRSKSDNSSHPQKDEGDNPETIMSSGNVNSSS

## CCCCCCCCCCCCC/C=C/[C@@H](O)[C@@H](N)COP(=O)(O)O [S1P, sphingosine-1-phosphate]
[1]
  change in fluorescence (GAVE1 activity): positive correlation of activity with increasing amounts of ligand

## CNC[C@H](O)c1cccc(O)c1 [phenylephrine]
[2]
  level of GAVE1 expression: up-regulated several-fold
